Patent US20240299488A1, “METHODS AND COMPOSITIONS FOR IMPROVING VISUAL FUNCTION IN OCULAR DISEASES AND DISORDERS” (ONL Therapeutics, Inc., priority 2021, published 2024)
Several values for one entry are separate records, joined by “and”; a condition that tells them apart may be missing. Identical values can stand only once. Ends that are not written are not given here.

What was measured:
Assay type in all cases: in vivo, human
[1] = test system: patients with retinal detachment; assay: Example 2: BCVA in retinal detachment patients, intravitreal injection followed by surgical repair; design: key to BCVA Snellen study eye: (HM) = hand motion; (CF) = counting fingers; conditions: for summary statistics for all patients, mean: doses 25 to 200 ug, baseline mean 1.86
Description: (§1) The primary objective was to determine the Maximum Tolerated Dose (MTD) of a peptide an amino acid sequence […] and the structure of Formula III (ONL1204) and select doses for further clinical studies. During the study, ocular fluid samples were also collected at the time of study drug injection and at the time of vitrectomy. These samples were used for pharmacokinetic and pharmacodynamic analyses.
(§2) Patients were enrolled in ascending dose groups. […] Safety visits were conducted one day post-injection and as deemed necessary by the examining Investigator (at least 1 visit every 3 days) until Visit 3. At Visit 3 (3+ days post-injection, in accordance with standard of care) patients underwent surgical repair of their retinal detachment with vitrectomy (with or without scleral buckling) and gas or oil tamponade. At the time of surgery, an undiluted vitreous sample was collected for pharmacokinetic and pharmacodynamics analyses, and an aqueous sample was collected for pharmacodynamic analysis. Additional safety visits were targeted for and generally conducted one day post-surgery, 7 days (±3 days) post-surgery, 14 (+4 days) days post-surgery, and Weeks 6, 9, 12 (±7 days each), and Week 24 (+14 days; study exit).
Therefore, a volume of 0.05 or 0.1 mL was injected into the study eye. Patient participation was approximately 24 weeks (6 months): a single injection treatment and 24 weeks of follow-up.

MCP1 = assay: Example 2: change in cytokine level in ocular fluid samples, MCP1
Description: as §1, §2

[2] = test system: patients having macular degeneration characterized by geographic atrophy (GA); assay: Example I: BCVA in GA patients after single intravitreal injection
IL1RA = assay: Example 2: change in cytokine level in ocular fluid samples, IL1RA
Description: as §1, §2

ICAM1 = assay: Example 2: change in cytokine level in ocular fluid samples, ICAM1
Description: as §1, §2

IL18 = assay: Example 2: change in cytokine level in ocular fluid samples, IL18
Description: as §1, §2

[3] = test system: patients with retinal detachment; assay: Example 2: safety, adverse event reporting
Description: as §1, §2
The following doses were evaluated: 25 microgram (ug) and 50 ug provided in vials with concentrations of 0.5 mg/mL and/or 2 mg/mL of Formula III. Therefore, a volume of 0.05 or 0.1 mL was injected into the study eye. Patient participation was approximately 24 weeks (6 months): a single injection treatment and 24 weeks of follow-up.
Planned determinations of dose limiting toxicity included consideration of the following events: • 1.

[4] = dose 25 ug (Table 1), individual patients
[5] = dose 50 ug (Table 1), individual patients
[6] = dose 100 ug (Table 1), individual patients
[7] = dose 200 ug (Table 1), individual patient

Substance: HHIYLGAVNYIY-NH2 [ONL1204]
- summary statistics for all patients, mean ([1]; Week 6, n 14): 0.65
- summary statistics for all patients, mean ([1]; Week 9, n 13): 0.78
- summary statistics for all patients, mean ([1]; Week 24, n 13): 0.56
- visual outcomes, all patients receiving ONL1204 ([1]; also with greater than 10 days of central vision loss, 3 to 7 days from administration to surgery, range of detachment heights and extents): improved visual outcomes were observed for all patients receiving ONL1204
- visual outcomes (e.g., visual acuity) ([1]; retinal detachment patients, doses comprising 25 ug and 50 ug, with surgery): showed an improvement in visual outcomes
- BCVA Snellen study eye ([1]; week 9, dose 100 ug, individual patients): HM
- Percent Change (%) from time of administering ONL1204 to surgery, MCP1 (MCP1; [4]): −41.4% and −6.02% and −35.9%
- Percent Change (%) from time of administering ONL1204 to surgery, MCP1 (MCP1; [5]): −3.12% and −48.4% and 11.6%
- Percent Change (%) from time of administering ONL1204 to surgery, MCP1 (MCP1; [6]): −9.5% and 78.5% and 500%
- Percent Change (%) from time of administering ONL1204 to surgery, MCP1 (MCP1; [7]): −2.4%
- change in cytokine levels (MCP 1, ICAM, IL IRA, and IL 18) from time of ONL1204 administration to surgery (MCP1; mean over patients of Table 7): mean decrease
- change in best corrected visual acuity (BCVA) ([2]; compared to baseline BCVA, FIG. 1, 1 to 24 weeks post treatment): improvement in visual acuity was generally observed
- visual outcomes (e.g., visual acuity) ([2]; doses comprising 25 ug and 50 ug, single intravitreal injection): showed an improvement in visual outcomes
- Percent Change (%) from time of administering ONL1204 to surgery, IL1RA (IL1RA; [4]): −51.0% and −57.4% and −99.3%
- Percent Change (%) from time of administering ONL1204 to surgery, IL1RA (IL1RA; [5]): −60.0% and −94.4% and −88.3%
- Percent Change (%) from time of administering ONL1204 to surgery, IL1RA (IL1RA; [6]): 8.5% and −46.1% and −65.2%
- Percent Change (%) from time of administering ONL1204 to surgery, IL1RA (IL1RA; [7]): −26.3%
- Percent Change (%) from time of administering ONL1204 to surgery, ICAM1 (ICAM1; [4]): −82.4% and −42.7% and −86.2%
- Percent Change (%) from time of administering ONL1204 to surgery, ICAM1 (ICAM1; [5]): 64.0% and −100% and 0%
- Percent Change (%) from time of administering ONL1204 to surgery, ICAM1 (ICAM1; [6]): −43.9% and 24.9% and 22.7%
- Percent Change (%) from time of administering ONL1204 to surgery, ICAM1 (ICAM1; [7]): 0%
- Percent Change (%) from time of administering ONL1204 to surgery, IL18 (IL18; [4]): −60.5% and −22.5% and −50.8%
- Percent Change (%) from time of administering ONL1204 to surgery, IL18 (IL18; [5]): 0% (2×) and −100%
- Percent Change (%) from time of administering ONL1204 to surgery, IL18 (IL18; [6]): −33.7% and 0% and 66.0%
- Percent Change (%) from time of administering ONL1204 to surgery, IL18 (IL18; [7]): 0%
- patients who experienced adverse events ([3]; 4 patients receiving 25 ug and 4 patients receiving 50 ug): 7 out of 8
- severity and relatedness of adverse events ([3]; 8 patients, 25 ug and 50 ug): Most were mild, and study procedure or surgery related
- total number of adverse events ([3]; 8 patients, 25 ug and 50 ug): 20
